Measured values: the supplement of paper PMC10307832

Columns and labels:
Assay in all cases: relative viability (nuclei count vs DMSO), 5 days (fraction); higher = more cells survive
[1] = compound: CC1=C(C=CC(=C1)[N+](=O)[O-])NS(=O)(=O)C2=C(C=CC(=C2)Cl)Cl [FH535] + NC(=O)Nc1cc(-c2cccc(F)c2)sc1C(=O)N[C@H]1CCCNC1 [AZD7762] (partner 0.2 µM)
Method in brief: (§1)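 After 5 days of treatment, lung cancer cells in 1536-well plates were fixed and stained in a single step (final 0.05% Triton X-100, 1% formaldehyde, 1 ug/ml Hoechst) and their nuclei counted on 4× images. Treatment had been applied by pin tool the day after seeding as one drug alone or as a fixed anchor-drug dose with five library-drug doses (not always all listed) in √10 steps. Relative viability is the nuclei count of treated wells divided by that of vehicle wells, and values are medians of duplicate plates.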

[2] = compound: CC1=C(C=CC(=C1)[N+](=O)[O-])NS(=O)(=O)C2=C(C=CC(=C2)Cl)Cl [FH535] + O=C(CCCCCCC(=O)Nc1ccccc1)NO [Vorinostat] (partner 1 µM)
Method in brief: as §1

[3] = compound: CC1=C(C=CC(=C1)[N+](=O)[O-])NS(=O)(=O)C2=C(C=CC(=C2)Cl)Cl [FH535] + CS(=O)(=O)CCNCc1ccc(-c2ccc3ncnc(Nc4ccc(OCc5cccc(F)c5)c(Cl)c4)c3c2)o1 [Lapatinib] (partner 2 µM)
Method in brief: as §1

[4] = compound: CC1=C(C=CC(=C1)[N+](=O)[O-])NS(=O)(=O)C2=C(C=CC(=C2)Cl)Cl [FH535] + CC(=O)Nc1cccc(-n2c(=O)n(C3CC3)c(=O)c3c(Nc4ccc(I)cc4F)n(C)c(=O)c(C)c32)c1 [Trametinib] (partner 0.02 µM)
Method in brief: as §1

[5] = compound: CC1=C(C=CC(=C1)[N+](=O)[O-])NS(=O)(=O)C2=C(C=CC(=C2)Cl)Cl [FH535]
Method in brief: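 MetaXpress counted nuclei in 4× images of lung cancer cell lines that had been fixed, permeabilised and Hoechst-stained in one step. Before that, cells in 1536-well plates were kept overnight at 37 °C, pinned with five √10-spaced library-drug doses on vehicle-anchored plates, and cultured 5 days without medium change. Viability takes treated-well nuclei over vehicle-well nuclei and uses the median across plates. Plates were accepted only at control CV below 25% and at least one doubling.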

Cell Line	relative viability ([1]; first compound 0.04 µM)	relative viability ([1]; first compound 0.1265 µM)	relative viability ([1]; first compound 0.4 µM)	relative viability ([1]; first compound 1.265 µM)	relative viability ([2]; first compound 0.04 µM)	relative viability ([2]; first compound 0.1265 µM)	relative viability ([2]; first compound 0.4 µM)	relative viability ([2]; first compound 1.265 µM)	relative viability ([3]; first compound 0.04 µM)	relative viability ([3]; first compound 0.1265 µM)	relative viability ([3]; first compound 0.4 µM)	relative viability ([3]; first compound 1.265 µM)	relative viability ([4]; first compound 0.04 µM)	relative viability ([4]; first compound 0.1265 µM)	relative viability ([4]; first compound 0.4 µM)	relative viability ([4]; first compound 1.265 µM)	relative viability ([5]; 0.04 µM)	relative viability ([5]; 0.1265 µM)	relative viability ([5]; 0.4 µM)	relative viability ([5]; 1.265 µM)
PC-14	0.357	0.416	0.245	0.349	0.741	0.607	0.782	0.797	0.365	0.318	0.376	0.313	0.652	0.815	0.895	0.693	1.01	1.06	0.989	0.955
NCI-H322M	0.522	0.549	0.515	0.633	0.898	0.878	0.83	0.744	0.504	0.554	0.555	0.595	0.47	0.459	0.478	0.526	0.92	0.93	0.937	0.761
NCI-H1944	0.316	0.527	0.588	0.48	0.291	0.575	0.425	0.509		0.777	0.668	0.754	0.405	0.42	0.398	0.325	0.862	0.993	0.928	0.818
NCI-H2170	0.897	1.06	0.809	0.815	0.713	0.816	0.768	0.69	0.26	0.332	0.265	0.254	0.964	0.883	0.752	0.706	0.904	1.02	0.963	0.858
LK-2	0.425	0.459	0.323	0.39	0.166	0.301	0.29	0.485	0.982	0.854	0.91	0.775	0.637	0.688	0.81	0.732	0.919	0.983	0.996	1.17
RERF-LC-KJ	0.905	1.02	0.931	0.704	0.632	0.64	0.685	0.573	0.916	0.884	0.824	0.714	0.862	0.921	0.869	0.744	0.947	0.998	0.962	0.808
NCI-H1355	0.688	0.843	0.727	0.76	0.574	0.631	0.565	0.534	0.92	1.01	0.933	0.883	0.397	0.428	0.406	0.329	0.942	0.981	0.917	0.681
NCI-H1993	0.927	0.704	0.626	0.532	0.822	0.801	0.606	0.57	0.676	0.781	0.729	0.714	0.57	0.566	0.496	0.52	0.902	0.967	0.838	0.635
HCC-15	1.18	1.21	1.06	1.13	0.733	0.85	0.838	0.696	0.825	0.679	0.733	0.534	0.288	0.358	0.406	0.316	0.928	0.998	0.841	0.786
NCI-H2347	0.696	0.819	0.764	0.761	0.753	0.681	0.608	0.52	0.979	0.664	0.971	0.781	0.276	0.318	0.3	0.291	0.986	0.974	1.02	0.842
NCI-H1395	0.381	0.426	0.368	0.393	0.543	0.679	0.697	0.532	0.768	0.968	0.964	0.555	0.936	1.02	1.06	0.874	0.683	0.929	0.909	0.62
NCI-H1666	0.727	0.899	0.772	0.747	1.01	0.995	0.992	0.959	0.601	0.623	0.634	0.421	0.861	0.869	0.905	0.69	0.986	0.976	0.954	0.93
NCI-H3122	1.03	0.98	0.984	0.933	0.901	1.1	0.979	0.966	1.01	0.978	0.999	0.89	0.188	0.274	0.2	0.22	0.933	0.995	0.978	0.885
HCC-78	0.644	0.888	0.618	0.468	0.408	0.429	0.479	0.414	0.694	0.321	0.701	0.697	0.694	0.713	0.602	0.665	0.927	1	0.951	0.865
NCI-H358	0.495	0.571	0.529	0.252	0.588	0.778	0.664	0.43	0.406	0.422	0.441	0.388	0.134	0.143	0.124	0.127	0.853	1.11	0.814	0.674
NCI-H1793	0.43	0.631	0.418	0.483	0.505	0.519	0.63	0.568	0.525	0.575	0.641	0.696	0.4	0.421	0.425	0.399	0.825	0.747	0.762	0.642

Cell Line	relative viability ([1]; first compound 0.04 µM)	relative viability ([1]; first compound 0.1265 µM)	relative viability ([1]; first compound 0.4 µM)	relative viability ([1]; first compound 1.265 µM)	relative viability ([2]; first compound 0.04 µM)	relative viability ([2]; first compound 0.1265 µM)	relative viability ([2]; first compound 0.4 µM)	relative viability ([2]; first compound 1.265 µM)	relative viability ([3]; first compound 0.04 µM)	relative viability ([3]; first compound 0.1265 µM)	relative viability ([3]; first compound 0.4 µM)	relative viability ([3]; first compound 1.265 µM)	relative viability ([4]; first compound 0.04 µM)	relative viability ([4]; first compound 0.1265 µM)	relative viability ([4]; first compound 0.4 µM)	relative viability ([4]; first compound 1.265 µM)	relative viability ([5]; 0.04 µM)	relative viability ([5]; 0.1265 µM)	relative viability ([5]; 0.4 µM)	relative viability ([5]; 1.265 µM)
HCC-366	0.244	0.289	0.307	0.247	0.131	0.416	0.34	0.261	1	1.11	0.999	0.913	0.379	0.387	0.274	0.34	1	1.05	0.973	0.992
NCI-H1651	0.368	0.511	0.502	0.466	0.473	0.531	0.606	0.52	0.815	0.729	0.731	0.669	0.81	0.78	0.79	0.666	0.92	0.988	0.964	0.727
LC-2-ad	0.809	0.828	0.744	0.697	0.603	0.714	0.677	0.521	0.711	0.97	0.92	0.697	0.886	0.878	0.88	0.766	0.894	0.936	0.857	0.71
HCC-827	0.203	0.205	0.278	0.221	0.701	0.846	0.869	0.664	0.202	0.195	0.213	0.163	0.504	0.545	0.538	0.42	0.956	1.04	0.936	0.767
LOU-NH91	0.767	0.779	0.608	0.428	0.877	0.982	0.652	0.524	0.726	0.667	0.6	0.408	0.729	0.819	0.75	0.525	0.936	1.07	0.742	0.472
NCI-H727	0.409	0.59	0.595	0.59	1.17	1.15	1.1	1.22	0.85	0.628	0.727	0.665	0.402	0.362	0.365	0.387	0.699	0.814	0.706	0.797
LU99A	0.205	0.353	0.354	0.328	0.356	0.484	0.487	0.464	0.739	1.05	0.969	0.866	0.475	0.572	0.576	0.338	0.812	0.973	0.854	0.811
HOP-62	0.473	0.66	0.416	0.55	0.5	0.681	0.557	0.563	0.886	0.87	1	1.01	0.374	0.373	0.391	0.355	0.89	0.919	0.93	0.853
NCI-H23	0.22	0.391	0.275	0.307	0.399	0.535	0.564	0.378		1.17	0.936	0.913	0.345	0.448	0.418	0.306	0.635	1.01	0.967	0.687
NCI-H1734	0.562	0.603	0.563	0.554	0.547	0.784	0.822	0.778	1.01	1.14	0.955	0.935	0.574	0.671	0.656	0.558	0.724	1.07	0.945	0.821
EKVX	0.77	0.661	0.631	0.559	0.403	0.819	0.693	0.222	0.179	0.221	0.227	0.187	0.319	0.391	0.292	0.293	0.987	0.951	0.905	0.773
NCI-H2342	0.491	0.482	0.482	0.354	0.674	0.725	0.87	0.721					0.794	0.823	0.9	0.842	0.96	0.964	1.01	0.76
SW 900	0.42	0.599	0.403	0.542	0.483	0.257	0.378	0.358					0.839	1.09	0.853	0.75	0.962	0.754	0.789	0.743
NCI-H1792	0.646	0.79	0.539	0.577					0.837	0.948	0.866	0.673	0.493	0.504	0.455	0.394	0.874	0.958	0.789	0.62
NCI-H441	1.09	1.32	1.09	1.02	0.733	0.59	0.843	0.757					0.454	0.334	0.428	0.394	0.929	1.14	1.14	0.84
